Test results reported in patent publication US20230106174A1, “RAS INHIBITORS” (Revolution Medicines, Inc., priority 2021, published 2023).
Read-outs that look alike come from different tables or passages of the source. Each block holds one compound with its values, some of them ahead of it.

Legend:
K-Ras G12C = biological target: T1, K-Ras G12C (Homo sapiens, UniProt P01116+P62937, G12C); assay: pERK potency assay in NCI-H358 cells (AlphaLISA SureFire or In-Cell Western); format: cell-based; details: 4 hours incubation
T1 construct: endogenous in cells; host or cells: NCI-H358
Procedure: The purpose of this assay was to measure the ability of test compounds to inhibit K-Ras in cells. […] This procedure measures a decrease in cellular pERK in response to test compounds. The procedure described below in NCI-H358 cells is applicable to K-Ras G12C. […]
NCI-H358 cells were grown and maintained using media and procedures recommended by the ATCC. On the day prior to compound addition, cells were plated in 384-well cell culture plates (40 μl/well) and grown overnight in a 37° C., 5% CO2 incubator. Test compounds were prepared in 10, 3-fold dilutions in DMSO, with a high concentration of 10 mM. On the day of assay, 40 nL of test compound was added to each well of cell culture plate using an Echo550 liquid handler (LabCyte®). Concentrations of test compound were tested in duplicate. After compound addition, cells were incubated 4 hours at 37° C., 5% CO2. Following incubation, culture medium was removed and cells were washed once with phosphate buffered saline.
In some experiments, cellular pERK level was determined using the AlphaLISA SureFire Ultra p-ERK1/2 Assay Kit (PerkinElmer). Cells were lysed in 25 μL lysis buffer, with shaking at 600 RPM at room temperature. Lysate (10 μL) was transferred to a 384-well Opti-plate (PerkinElmer) and 5 μL acceptor mix was added. After a 2-hour incubation in the dark, 5 μL donor mix was added, the plate was sealed, and incubated 2 hours at room temperature. Signal was read on an Envision plate reader (PerkinElmer) using standard AlphaLISA settings. Analysis of raw data was carried out in Excel (Microsoft) and Prism (GraphPad). Signal was plotted vs. the decadal logarithm of compound concentration, and IC50 was determined by fitting a 4-parameter sigmoidal concentration response model.
In other experiments, cellular pERK was determined by In-Cell Western. Following compound treatment, cells were washed twice with 200 μL tris buffered saline (TBS) and fixed for 15 minutes with 150 μL 4% paraformaldehyde in TBS. Fixed cells were washed 4 times for 5 minutes with TBS containing 0.1% Triton X-100 (TBST) and then blocked with 100 μL Odyssey blocking buffer (LI-COR) for 60 minutes at room temperature. […] Cells were washed 4 times for 5 minutes with TBST. Secondary antibody (IR-800CW rabbit, LI-COR, diluted 1:800) and DNA stain DRAQ5 (LI-COR, diluted 1:2000) were added and incubated 1-2 hours at room temperature. Cells were washed 4 times for 5 minutes with TBST. Plates were scanned on a Li—COR Odyssey CLx Imager. Analysis of raw data was carried out in Excel (Microsoft) and Prism (GraphPad). Signal was plotted vs. the decadal logarithm of compound concentration, and IC50 was determined by fitting a 4-parameter sigmoidal concentration response model.

NCI-H358 (K-Ras G12C) = assay: CellTiter-Glo cell viability assay, 5-day treatment, NCI-H358; format: cell-based; details: Homo sapiens, NCI-H358, 120 h
Source text: Determination of Cell Viability in RAS Mutant Cancer Cell Lines
Protocol: CellTiter-Glo® Cell Viability Assay
Note—The following protocol describes a procedure for monitoring cell viability of K-Ras mutant cancer cell lines in response to a compound of the invention. Other RAS isoforms may be employed, though the number of cells to be seeded will vary based on cell line used.
The purpose of this cellular assay was to determine the effects of test compounds on the proliferation of three human cancer cell lines (NCI-H358 (K-Ras G12C), AsPC-1 (K-Ras G12D), and Capan-1 (K-Ras G12V)) over a 5-day treatment period by quantifying the amount of ATP present at endpoint using the CellTiter-Glo® 2.0 Reagent (Promega).
Cells were seeded at 250 cells/well in 40 μL of growth medium in 384-well assay plates and incubated overnight in a humidified atmosphere of 5% CO2 at 37° C. On the day of the assay, 10 mM stock solutions of test compounds were first diluted into 3 mM solutions with 100% DMSO. Well-mixed compound solutions (15 μL) were transferred to the next wells containing 30 μL of 100% DMSO, and repeated until a 9-concentration 3-fold serial dilution was made (starting assay concentration of 10 μM). Test compounds (132.5 nL) were directly dispensed into the assay plates containing cells. The plates were shaken for 15 seconds at 300 rpm, centrifuged, and incubated in a humidified atmosphere of 5% CO2 at 37° C. for 5 days. On day 5, assay plates and their contents were equilibrated to room temperature for approximately 30 minutes. CellTiter-Glo® 2.0 Reagent (25 μL) was added, and plate contents were mixed for 2 minutes on an orbital shaker before incubation at room temperature for 10 minutes. Luminescence was measured using the PerkinElmer Enspire. Data were normalized by the following: (Sample signal/Avg. DMSO)*100. The data were fit using a four-parameter logistic fit.

T1 sequence (P01116 1-188 isoform P01116-2 G12C): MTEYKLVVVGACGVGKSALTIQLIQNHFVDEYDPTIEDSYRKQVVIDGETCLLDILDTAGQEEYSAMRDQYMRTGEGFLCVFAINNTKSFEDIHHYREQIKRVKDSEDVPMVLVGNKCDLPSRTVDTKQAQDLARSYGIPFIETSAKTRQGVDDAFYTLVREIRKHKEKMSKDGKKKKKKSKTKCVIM
T1 sequence (P62937 whole entry): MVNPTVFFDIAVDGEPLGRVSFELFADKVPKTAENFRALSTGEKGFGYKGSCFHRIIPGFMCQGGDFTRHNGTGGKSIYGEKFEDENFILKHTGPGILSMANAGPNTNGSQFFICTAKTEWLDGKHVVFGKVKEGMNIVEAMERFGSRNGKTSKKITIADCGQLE

Compound: C=CCOC(=O)N[C@H]1Cc2nc(no2)-c2ccc3c(c2)c(c(-c2cccnc2[C@H](C)OC)n3CC)CC(C)(C)COC(=O)[C@@H]2CCCN(N2)C1=O
ring closure, yield of all isomers (from C=CCOC(=O)NC(Cc1nc(-c2ccc3c(c2)c(CC(C)(C)COC(=O)[C@@H]2CCCNN2)c(-c2cccnc2[C@H](C)OC)n3CC)no1)C(=O)O, amide bond, HATU/DIPEA, DCM, 139.0 mM, 25.0 °C, 16.0 h): 33%

Compound: CCn1c(-c2cc(N3CCN(C(=O)OCc4ccccc4)CC3)cnc2[C@H](C)OC)c2c3cc(ccc31)-c1csc(n1)C[C@H](NC(=O)OC(C)(C)C)C(=O)N1CCC[C@H](N1)C(=O)OCC(C)(C)C2
ring closure, yield of all isomers (from CCn1c(-c2cc(N3CCN(C(=O)OCc4ccccc4)CC3)cnc2[C@H](C)OC)c(CC(C)(C)CO)c2cc(-c3csc(C[C@H](NC(=O)OC(C)(C)C)C(=O)N4CCC[C@@H](C(=O)O)N4)n3)ccc21, ester bond, EDCI/HOBt/DIEA, MeCN, 10.3 mM, 25.0 °C, 16.0 h): 54.8%

Compound: CCn1c(-c2cc(N3CCN4CCCC[C@@H]4C3)cnc2[C@H](C)OC)c2c3cc(ccc31)-c1cccc(c1)C[C@H](NC(=O)OC(C)(C)C)C(=O)N1CCC[C@H](N1)C(=O)OCC(C)(C)C2
ring closure, yield of all isomers (from CCn1c(-c2cc(N3CCN4CCCC[C@@H]4C3)cnc2[C@H](C)OC)c(CC(C)(C)CO)c2cc(-c3cccc(C[C@H](NC(=O)OC(C)(C)C)C(=O)N4CCC[C@@H](C(=O)O)N4)c3)ccc21, ester bond, EDCI/HOBt/DIPEA, DCM, 11.3 mM, 25.0 °C, 16.0 h): 62%

Compound: CCn1c(-c2cccnc2[C@H](C)OC)c2c3cc(ccc31)-c1nc(no1)C[C@H](NC(=O)OC(C)(C)C)C(=O)N1CCC[C@H](N1)C(=O)OCC(C)(C)C2
ring closure, yield of all isomers (from CCn1c(-c2cccnc2[C@H](C)OC)c(CC(C)(C)CO)c2cc(-c3nc(C[C@H](NC(=O)OC(C)(C)C)C(=O)N4CCC[C@@H](C(=O)O)N4)no3)ccc21, ester bond, EDCI/HOBT/DIPEA, DCM, 6.8 mM, 25.0 °C, 16.0 h): 18%

Compound: CO[C@@H](C)c1ncccc1-c1c2c3cc(ccc3n1CC(F)(F)F)-c1coc(n1)C[C@H](NC(=O)OCc1ccccc1)C(=O)N1CCC[C@H](N1)C(=O)OCC(C)(C)C2
ring closure, yield of all isomers (from CO[C@@H](C)c1ncccc1-c1c(CC(C)(C)COC(=O)[C@@H]2CCCNN2)c2cc(-c3coc(C[C@H](NC(=O)OCc4ccccc4)C(=O)O)n3)ccc2n1CC(F)(F)F, amide bond, EDCI/HOBt/DIPEA, DCM, 6.06 mM, 25.0 °C, 16.0 h): 21%

Compound: CO[C@@H](C)c1ncccc1-c1c2c3cc(ccc3n1CC(F)(F)F)C1CCCN(C1)C[C@H](NC(=O)OC(C)(C)C)C(=O)N1CCC[C@H](N1)C(=O)OCC(C)(C)C2
ring closure, yield of all isomers (from CO[C@@H](C)c1ncccc1-c1c(CC(C)(C)CO)c2cc(C3CCCN(C[C@H](NC(=O)OC(C)(C)C)C(=O)N4CCC[C@@H](C(=O)O)N4)C3)ccc2n1CC(F)(F)F, ester bond, EDCI/HOBT/DIPEA, DCM, 6.2 mM, 25.0 °C): 17%

Compound: CO[C@@H](C)c1ncccc1-c1c2c3cc(ccc3n1CC(F)(F)F)C1CCN(C1)C[C@H](NC(=O)OC(C)(C)C)C(=O)N1CCC[C@H](N1)C(=O)OCC(C)(C)C2
ring closure, yield of all isomers (from CO[C@@H](C)c1ncccc1-c1c(CC(C)(C)CO)c2cc(C3CCN(C[C@H](NC(=O)OC(C)(C)C)C(=O)N4CCC[C@@H](C(=O)O)N4)C3)ccc2n1CC(F)(F)F, ester bond, EDCI/HOBt/DIPEA, DCM, 6.97 mM, 25.0 °C, 16.0 h): 21%

Compound: CO[C@@H](C)c1ncccc1-c1c2c3cc(ccc3n1CC(F)(F)F)C1CN(C1)C[C@H](NC(=O)OC(C)(C)C)C(=O)N1CCC[C@H](N1)C(=O)OCC(C)(C)C2
ring closure, yield of all isomers (from CO[C@@H](C)c1ncccc1-c1c(CC(C)(C)CO)c2cc(C3CN(C[C@H](NC(=O)OC(C)(C)C)C(=O)N4CCC[C@@H](C(=O)O)N4)C3)ccc2n1CC(F)(F)F, ester bond, EDCI/HOBt/DIPEA, DCM, 6.45 mM, 30.0 °C, 16.0 h): 37%

IC50 (K-Ras G12C): > 1000 nM
Compound: C=CC(=O)N1CCOC2(CCN(C(=O)N(C)[C@H](C(=O)N[C@H]3Cc4cncc(n4)-c4ccc5c(c4)c(c(-c4cccnc4[C@H](C)OC)n5CC)CC(C)(C)COC(=O)[C@@H]4CCCN(N4)C3=O)C(C)C)CC2)C1 (atropisomer, axis not shown) [Example A36]

IC50 (K-Ras G12C): > 1000 nM
Compound: C=CC(=O)N1COC2(CCN(C(=O)N(C)[C@H](C(=O)N[C@H]3CC4=NC=C(O4)c4ccc5c(c4)c(c(-c4cccnc4[C@H](C)OC)n5CC)CC(C)(C)COC(=O)[C@@H]4CCCN(N4)C3=O)C(C)C)CC2)C1 (atropisomer, axis not shown) [Example A37]

IC50 (K-Ras G12C): > 1000 nM
IC50 (NCI-H358 (K-Ras G12C)): > 1000 nM
Compound: C=CC(=O)N1CCN(CC)C2(CCN(C(=O)N(C)[C@H](C(=O)N[C@H]3C[C@H]4CN(CCO4)c4ccc5c(c4)c(c(-c4cccnc4[C@H](C)OC)n5CC)CC(C)(C)COC(=O)[C@@H]4CCCN(N4)C3=O)C(C)C)CC2)C1 (atropisomer, axis not shown) [Example A38]

IC50 (NCI-H358 (K-Ras G12C)): > 1000 nM
Compound: CCn1c(-c2cccnc2[C@H](C)OC)c2c3cc(ccc31)-c1cc(C(F)F)cc(n1)C[C@H](NC(=O)[C@H](C(C)C)N(C)C(=O)N1CCC3(CCN(C(=O)/C=C/CN(C)C)C3)CC1)C(=O)N1CCC[C@H](N1)C(=O)OCC(C)(C)C2 (atropisomer, axis not shown) [Example A39]

IC50 (K-Ras G12C): > 1000 nM
Compound: C=CC(=O)N1CC2(CCN(C(=O)N(C)[C@H](C(=O)N[C@H]3C[C@H]4CN(CCO4)c4ccc5c(c4)c(c(-c4cccnc4[C@H](C)OC)n5CC)CC(C)(C)COC(=O)[C@@H]4CCCN(N4)C3=O)C(C)C)CC2)C1 (atropisomer, axis not shown) [Example A121]

IC50 (K-Ras G12C): > 1000 nM
Compound: C=CC(=O)N1CCOC2(CCN(C(=O)N(C)[C@H](C(=O)N[C@H]3Cc4cncc(c4)-c4ccc5c(c4)c(c(-c4cccnc4[C@H](C)OC)n5CC)CC(C)(C)COC(=O)[C@@H]4CCCN(N4)C3=O)C(C)C)CC2)C1 (atropisomer, axis not shown) [Example A124]

IC50 (K-Ras G12C): > 1000 nM
IC50 (NCI-H358 (K-Ras G12C)): > 1000 nM
Compound: CCn1c(-c2cccnc2[C@H](C)OC)c2c3cc(ccc31)N1CCO[C@@H](C[C@H](NC(=O)[C@H](C(C)C)N(C)C(=O)N3CCC4(CC3)CN(C(=O)/C=C/CF)C4)C(=O)N3CCC[C@H](N3)C(=O)OCC(C)(C)C2)C1 (atropisomer, axis not shown) [Example A128]

IC50 (K-Ras G12C): > 890 nM
Compound: C=CC(=O)N1CCOC2(CCN(C(=O)N(C)[C@H](C(=O)N[C@H]3C[C@@]4(C)CN(CCO4)c4ccc5c(c4)c(c(-c4cccnc4[C@H](C)OC)n5CC)CC(C)(C)COC(=O)[C@@H]4CCCN(N4)C3=O)C(C)C)CC2)C1 (atropisomer, axis not shown) [Example A130]

IC50 (K-Ras G12C): > 1000 nM
Compound: C=CC(=O)N1CCOC2(C1)CN(C(=O)N(C)[C@H](C(=O)N[C@H]1C[C@H]3CN(CCO3)c3ccc4c(c3)c(c(-c3cccnc3[C@H](C)OC)n4CC)CC(C)(C)COC(=O)[C@@H]3CCCN(N3)C1=O)C(C)C)C2 (atropisomer, axis not shown) [Example A136]

IC50 (K-Ras G12C): > 1000 nM
Compound: C=CC(=O)N1CCN(C)C2(CCN(C(=O)N(C)[C@H](C(=O)N[C@H]3C[C@H]4CN(CCO4)c4ccc5c(c4)c(c(-c4cccnc4[C@H](C)OC)n5CC)CC(C)(C)COC(=O)[C@@H]4CCCN(N4)C3=O)C(C)C)CC2)C1 (atropisomer, axis not shown) [Example A189]
